# Reference: US20030104507A1, “Method for detection of ATP” (priority 2001, published 2003)
# System: Jurkat cells
# Test: Effect of NaF on Jurkat cell luminescence
# Type: cell-based
# From the text: In some cells, such as lymphoid cells (e.g., Jurkat), an increase in luminescence over time in the presence of the reagent composition solution is observed. While the underlying mechanism of this increase in luminescence is not known, it is postulated that it results from the functioning of ATP-generating enzymes in this cell. The activity of such enzymes, if left unchecked, will result in an over-estimation of ATP in a sample at the time of the assay. This experiment was designed to test the effects of sodium fluoride on luminescence when using lymphoid cells.
# Jurkat cells (ATCC, CRL-1990) were grown in 5% CO2/95% air, 100% humidity at 37° C. and maintained in RPMI media (Sigma, R-8005) containing 10% FBS (Hyclone #SH30070), 1X non-essential amino acids (Hyclone SH30238) and 1 mM sodium pyruvate (Hyclone #SH30239). Cells were plated at 0, 12500, 25000, and 50000 cells/well in 100 μl of media in a 96-well microtiter luminometer plate. Quadruplicate replicates were prepared. To each of these wells was added reagent composition (reagent composition=40 mM Citrate buffer (pH 6.0), 110 mM MES buffer (pH 6.0), 0.2 mM EDTA, 0.2% Gelatin, 100 μg/ml Luciferase (LucPpe2m146, diluted from 37.8 mg/ml stock solution), 100 μM luciferin, 300 mM NaCl, 20 mM MgSO4, 0.05% Mazu DF-204, 0.6% DTAB). In addition, all but the “no KPO4” control sample contained 60 mM KPO4 buffer (pH 6.0). Various concentrations of NaF were then added to the above solution to final concentrations of 0, 1.0, 2.0, 4.0, 10.0 mM; one condition had 10.0 mM NaF but without KPO4.
# Total reaction volume per well was 200 μl, consisting of 100 μl cells plus media and 100 μl reagent composition containing KPO4 and/or NaF. The light output was taken at various times on a Dynex microtiter plate luminometer at a 0.5 second read time. The resulting average rlus from quadruplicate wells and calculated signal stabilities as measured by their half-life values are reported in Table S.
compound,measurement,setting,value
"[F-].[Na+] [NaF, sodium fluoride]",Average rlu,"1.0 mM NaF, 12500 cells/well, 0 min",358.61 rlu
same,Average rlu,"1.0 mM NaF, 12500 cells/well, 30 min",341.31 rlu
same,Average rlu,"1.0 mM NaF, 12500 cells/well, 85 min",331.08 rlu
same,Average rlu,"1.0 mM NaF, 12500 cells/well, 130 min",323.54 rlu
same,Average rlu,"1.0 mM NaF, 12500 cells/well, 220 min",271.89 rlu
same,Average rlu,"1.0 mM NaF, 12500 cells/well, 255 min",257.06 rlu
same,Average rlu,"1.0 mM NaF, 12500 cells/well, 285 min",247.61 rlu
same,Average rlu,"1.0 mM NaF, 25000 cells/well, 0 min",691.68 rlu
same,Average rlu,"1.0 mM NaF, 25000 cells/well, 30 min",640.53 rlu
same,Average rlu,"1.0 mM NaF, 25000 cells/well, 85 min",611.45 rlu
same,Average rlu,"1.0 mM NaF, 25000 cells/well, 130 min",596.87 rlu
same,Average rlu,"1.0 mM NaF, 25000 cells/well, 220 min",495.89 rlu
same,Average rlu,"1.0 mM NaF, 25000 cells/well, 255 min",463.32 rlu
same,Average rlu,"1.0 mM NaF, 25000 cells/well, 285 min",446.32 rlu
same,Average rlu,"1.0 mM NaF, 50000 cells/well, 0 min",1380.16 rlu
same,Average rlu,"1.0 mM NaF, 50000 cells/well, 30 min",1268.49 rlu
same,Average rlu,"1.0 mM NaF, 50000 cells/well, 85 min",1185.73 rlu
same,Average rlu,"1.0 mM NaF, 50000 cells/well, 130 min",1147.33 rlu
same,Average rlu,"1.0 mM NaF, 50000 cells/well, 220 min",936.82 rlu
same,Average rlu,"1.0 mM NaF, 50000 cells/well, 255 min",862.31 rlu
same,Average rlu,"1.0 mM NaF, 50000 cells/well, 285 min",832.15 rlu
same,Average rlu,"2.0 mM NaF, 12500 cells/well, 0 min",348.16 rlu
same,Average rlu,"2.0 mM NaF, 12500 cells/well, 30 min",333.48 rlu
same,Average rlu,"2.0 mM NaF, 12500 cells/well, 85 min",323.75 rlu
same,Average rlu,"2.0 mM NaF, 12500 cells/well, 130 min",317.48 rlu
same,Average rlu,"2.0 mM NaF, 12500 cells/well, 220 min",258.43 rlu
same,Average rlu,"2.0 mM NaF, 12500 cells/well, 255 min",251.90 rlu
same,Average rlu,"2.0 mM NaF, 12500 cells/well, 285 min",239.40 rlu
same,Average rlu,"2.0 mM NaF, 25000 cells/well, 0 min",679.02 rlu
same,Average rlu,"2.0 mM NaF, 25000 cells/well, 30 min",631.69 rlu
same,Average rlu,"2.0 mM NaF, 25000 cells/well, 85 min",603.07 rlu
same,Average rlu,"2.0 mM NaF, 25000 cells/well, 130 min",589.08 rlu
same,Average rlu,"2.0 mM NaF, 25000 cells/well, 220 min",472.37 rlu
same,Average rlu,"2.0 mM NaF, 25000 cells/well, 255 min",455.25 rlu
same,Average rlu,"2.0 mM NaF, 25000 cells/well, 285 min",433.54 rlu
same,Average rlu,"2.0 mM NaF, 50000 cells/well, 0 min",1340.22 rlu
same,Average rlu,"2.0 mM NaF, 50000 cells/well, 30 min",1239.83 rlu
same,Average rlu,"2.0 mM NaF, 50000 cells/well, 85 min",1156.03 rlu
same,Average rlu,"2.0 mM NaF, 50000 cells/well, 130 min",1111.04 rlu
same,Average rlu,"2.0 mM NaF, 50000 cells/well, 220 min",873.26 rlu
same,Average rlu,"2.0 mM NaF, 50000 cells/well, 255 min",829.87 rlu
same,Average rlu,"2.0 mM NaF, 50000 cells/well, 285 min",781.80 rlu
same,Average rlu,"4.0 mM NaF, 12500 cells/well, 0 min",367.69 rlu
same,Average rlu,"4.0 mM NaF, 12500 cells/well, 30 min",346.05 rlu
same,Average rlu,"4.0 mM NaF, 12500 cells/well, 85 min",335.27 rlu
same,Average rlu,"4.0 mM NaF, 12500 cells/well, 130 min",331.07 rlu
same,Average rlu,"4.0 mM NaF, 12500 cells/well, 220 min",275.13 rlu
same,Average rlu,"4.0 mM NaF, 12500 cells/well, 255 min",259.58 rlu
same,Average rlu,"4.0 mM NaF, 12500 cells/well, 285 min",251.79 rlu
same,Average rlu,"4.0 mM NaF, 25000 cells/well, 0 min",691.41 rlu
same,Average rlu,"4.0 mM NaF, 25000 cells/well, 30 min",634.08 rlu
same,Average rlu,"4.0 mM NaF, 25000 cells/well, 85 min",604.37 rlu
same,Average rlu,"4.0 mM NaF, 25000 cells/well, 130 min",587.41 rlu
same,Average rlu,"4.0 mM NaF, 25000 cells/well, 220 min",476.36 rlu
same,Average rlu,"4.0 mM NaF, 25000 cells/well, 255 min",453.66 rlu
same,Average rlu,"4.0 mM NaF, 25000 cells/well, 285 min",436.38 rlu
same,Average rlu,"4.0 mM NaF, 50000 cells/well, 0 min",1378.13 rlu
same,Average rlu,"4.0 mM NaF, 50000 cells/well, 30 min",1277.41 rlu
same,Average rlu,"4.0 mM NaF, 50000 cells/well, 85 min",1195.56 rlu
same,Average rlu,"4.0 mM NaF, 50000 cells/well, 130 min",1139.99 rlu
same,Average rlu,"4.0 mM NaF, 50000 cells/well, 220 min",883.49 rlu
same,Average rlu,"4.0 mM NaF, 50000 cells/well, 255 min",853.43 rlu
same,Average rlu,"4.0 mM NaF, 50000 cells/well, 285 min",813.31 rlu
same,Average rlu,"10.0 mM NaF, 12500 cells/well, 0 min",364.79 rlu
same,Average rlu,"10.0 mM NaF, 12500 cells/well, 30 min",343.44 rlu
same,Average rlu,"10.0 mM NaF, 12500 cells/well, 85 min",331.48 rlu
same,Average rlu,"10.0 mM NaF, 12500 cells/well, 130 min",326.32 rlu
same,Average rlu,"10.0 mM NaF, 12500 cells/well, 220 min",271.64 rlu
same,Average rlu,"10.0 mM NaF, 12500 cells/well, 255 min",256.88 rlu
same,Average rlu,"10.0 mM NaF, 12500 cells/well, 285 min",248.30 rlu
same,Average rlu,"10.0 mM NaF, 25000 cells/well, 0 min",753.29 rlu
same,Average rlu,"10.0 mM NaF, 25000 cells/well, 30 min",677.94 rlu
same,Average rlu,"10.0 mM NaF, 25000 cells/well, 85 min",635.67 rlu
same,Average rlu,"10.0 mM NaF, 25000 cells/well, 130 min",617.77 rlu
same,Average rlu,"10.0 mM NaF, 25000 cells/well, 220 min",496.08 rlu
same,Average rlu,"10.0 mM NaF, 25000 cells/well, 255 min",471.66 rlu
same,Average rlu,"10.0 mM NaF, 25000 cells/well, 285 min",450.76 rlu
same,Average rlu,"10.0 mM NaF, 50000 cells/well, 0 min",1442.08 rlu
same,Average rlu,"10.0 mM NaF, 50000 cells/well, 30 min",1324.67 rlu
same,Average rlu,"10.0 mM NaF, 50000 cells/well, 85 min",1235.80 rlu
same,Average rlu,"10.0 mM NaF, 50000 cells/well, 130 min",1181.84 rlu
same,Average rlu,"10.0 mM NaF, 50000 cells/well, 220 min",903.44 rlu
same,Average rlu,"10.0 mM NaF, 50000 cells/well, 255 min",870.95 rlu
same,Average rlu,"10.0 mM NaF, 50000 cells/well, 285 min",826.48 rlu
same,Average rlu,"10.0 mM NaF, without KPO4, 12500 cells/well, 0 min",409.57 rlu
same,Average rlu,"10.0 mM NaF, without KPO4, 12500 cells/well, 30 min",400.10 rlu
same,Average rlu,"10.0 mM NaF, without KPO4, 12500 cells/well, 85 min",384.84 rlu
same,Average rlu,"10.0 mM NaF, without KPO4, 12500 cells/well, 130 min",371.42 rlu
same,Average rlu,"10.0 mM NaF, without KPO4, 12500 cells/well, 220 min",294.12 rlu
same,Average rlu,"10.0 mM NaF, without KPO4, 12500 cells/well, 255 min",283.01 rlu
same,Average rlu,"10.0 mM NaF, without KPO4, 12500 cells/well, 285 min",267.78 rlu
same,Average rlu,"10.0 mM NaF, without KPO4, 25000 cells/well, 0 min",806.87 rlu
same,Average rlu,"10.0 mM NaF, without KPO4, 25000 cells/well, 30 min",785.16 rlu
same,Average rlu,"10.0 mM NaF, without KPO4, 25000 cells/well, 85 min",734.44 rlu
same,Average rlu,"10.0 mM NaF, without KPO4, 25000 cells/well, 130 min",692.57 rlu
same,Average rlu,"10.0 mM NaF, without KPO4, 25000 cells/well, 220 min",516.69 rlu
same,Average rlu,"10.0 mM NaF, without KPO4, 25000 cells/well, 255 min",498.99 rlu
same,Average rlu,"10.0 mM NaF, without KPO4, 25000 cells/well, 285 min",468.90 rlu
same,Average rlu,"10.0 mM NaF, without KPO4, 50000 cells/well, 0 min",1514.80 rlu
same,Average rlu,"10.0 mM NaF, without KPO4, 50000 cells/well, 30 min",1449.30 rlu
same,effect on the luminescence increase seen with Jurkat cells,NaF added to reagent composition,can inhibit the luminescence increase
